Measured values from patent US9890138B2, “Diaminopyrimidine derivatives and processes for the preparation thereof” (YUHAN CORPORATION, priority 2011, dated 2018).
Structures can show the parent of a compound that is named as a salt.

Molecular target: T1, human 5-HT4(a) (Homo sapiens, UniProt Q13639)
T1 construct: host or cells: GeneBlAzer HTR4-CRE-bla CHO-K1 cells
Test: Evaluation of agonistic activity in CHO-K1 cells expressing human 5-HT4(a) (GeneBlAzer HTR4-CRE-bla CHO-K1, beta-lactamase reporter)
Format: cell-based
Details: CHO-K1 cells stably expressing human 5-HT4(a)
Procedure, shortened: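 GeneBlAzer HTR4-CRE-bla CHO-K1 cells, 10^4/well overnight, exposed 5 h to compounds at 8 concentrations in medium with 1% DMSO in the added solution. β-lactamase substrate 2 h in dark; 410 nm excitation, 465/535 nm emission ratio; EC50 by non-linear regression.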

T1 sequence (Q13639 1-387 isoform Q13639-2): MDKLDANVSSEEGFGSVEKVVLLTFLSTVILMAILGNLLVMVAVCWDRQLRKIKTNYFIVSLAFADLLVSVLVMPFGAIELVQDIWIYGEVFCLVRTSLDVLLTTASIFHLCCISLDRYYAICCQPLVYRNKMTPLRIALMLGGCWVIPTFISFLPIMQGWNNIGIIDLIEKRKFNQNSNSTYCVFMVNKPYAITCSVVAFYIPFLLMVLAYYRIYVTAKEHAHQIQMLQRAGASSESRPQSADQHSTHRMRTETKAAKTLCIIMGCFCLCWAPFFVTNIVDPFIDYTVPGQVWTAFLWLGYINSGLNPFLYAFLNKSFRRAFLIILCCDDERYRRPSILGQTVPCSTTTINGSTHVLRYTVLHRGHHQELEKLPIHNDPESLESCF

EC50 [nM] | SMILES
0.081 | CCCc1cc(N2CC[C@H](NCC(C)CC)C2)nc(Nc2cccc(C#N)c2)n1 (stereo partly drawn) [Example 95, 3-{4-[(3S)-3-(2-methylbutylamino)pyrrolidin-1-yl]-6-propylpyrimidin-2-ylamino}benzonitrile]
0.034 | CCCc1cc(N2CC[C@H](NC3CCN(C(=O)c4ccccc4)CC3)C2)nc(Nc2cccc(C#N)c2)n1 [Example 139, (S)-3-{4-[3-(1-benzoylpiperidin-4-ylamino)pyrrolidin-1-yl]-6-propylpyrimidin-2-ylamino}benzonitrile]
0.011 | CCCCCN[C@H]1CCN(c2cc(CCC)nc(Nc3ccc(C)c(C#N)c3)n2)C1 [Example 422]
0.041 | CCCc1cc(N2CC[C@H](NCCc3ccccc3)C2)nc(Nc2cccc(C#N)c2)n1 [Example 88, (S)-3-{4-[3-(phenethylamino)pyrrolidin-1-yl]-6-propylpyrimidin-2-ylamino}benzonitrile]
0.29 | CCCc1cc(N2CCC[C@H]2C(=O)OC)nc(Nc2ccc3cc[nH]c3c2)n1 [Example 191]
0.27 | CCCc1cc(N2CC[C@H](NC(=O)Cc3ccc(N)cc3)C2)nc(Nc2cccc(C#N)c2)n1 [Example 73, (S)-2-(4-aminophenyl)-N-{1-[2-(3-cyanophenylamino)-6-propylpyrimidin-4-yl]pyrrolidin-3-yl}acetamide]
0.01 | CCCc1cc(N2CC[C@H](NCCC(C)C)C2)nc(Nc2cccc(C#N)c2)n1 [Example 93, (S)-3-{4-[3-(isopentylamino)pyrrolidin-1-yl]-6-propylpyrimidin-2-ylamino}benzonitrile]
0.038 | CCCc1cc(N2CC[C@H](NC(C)=O)C2)nc(Nc2ccc(C)c(N)c2)n1 [Example 292, (S)—N-{1-[2-(3-amino-4-methylphenylamino)-6-propylpyrimidin-4-yl]pyrrolidin-3-yl}acetamide]
0.011 | CCCc1cc(N2CC[C@H](NC(C)=O)C2)nc(Nc2ccc3cc[nH]c3c2)n1 [Example 243]
0.21 | CCCc1cc(N2CC[C@H](NCc3ccc(C(F)(F)F)cc3)C2)nc(Nc2cccc(C#N)c2)n1 [Example 108, (S)-3-(4-propyl-6-{3-[4-(trifluoromethyl)benzylamino]pyrrolidin-1-yl}pyrimidin-2-ylamino)benzonitrile]
0.0067 | CCCCc1cc(N2CC[C@H](NC)C2)nc(Nc2ccc(C)c(C#N)c2)n1 [Example 231]
0.0099 | CCCCc1cc(N2CC[C@H](NC(C)=O)C2)nc(Nc2ccc(F)c(C#N)c2)n1 [Example 443]
0.0097 | CCCc1cc(N2CCC[C@H]2COC)nc(Nc2ccc(N)c([N+](=O)[O-])c2)n1 [Example 46, (S)-N^1-{4-[2-(methoxymethyl)pyrrolidin-1-yl]-6-propylpyrimidin-2-yl}-3-nitrobenzene-1,4-diamine]
0.17 | CCCc1cc(N2CC[C@H](NC(=O)Cc3cccs3)C2)nc(Nc2cccc(C#N)c2)n1 [Example 80, (S)-N-{1-[2-(3-cyanophenylamino)-6-propylpyrimidin-4-yl]pyrrolidin-3-yl}-2-(thiophen-2-yl)acetamide]
0.33 | CCCc1cc(N2CC[C@H](NC)C2)nc(Nc2ccc(F)cc2)n1 [Example 22, (S)-N-(4-fluorophenyl)-4-[3-(methylamino)pyrrolidin-1-yl]-6-propylpyrimidin-2-amine]
0.0058 | CCCCc1cc(N2CC[C@H](NCC)C2)nc(Nc2cc(N)cc(C(F)(F)F)c2)n1 [Example 466]
0.0034 | CCCN[C@H]1CCN(c2cc(CCC)nc(Nc3ccc(C)c(C#N)c3)n2)C1 [Example 414]
0.053 | CCCc1cc(N2CC[C@H](NC(C)=O)C2)nc(Nc2ccc3c(C)cc(=O)oc3c2)n1 [Example 245]
0.0025 | CCCCc1cc(N2CC[C@H](NC)C2)nc(Nc2ccc(C)c([N+](=O)[O-])c2)n1 [Example 448]
0.119 | CCCc1cc(N2CC[C@H](NC(=O)CCN(C)C)C2)nc(Nc2cccc(C#N)c2)n1 [Example 161]
0.22 | CCCc1cc(N2CC[C@H](NC(=O)COC)C2)nc(Nc2cccc(C#N)c2)n1 [Example 75, (S)-N-{1-[2-(3-cyanophenylamino)-6-propylpyrimidin-4-yl]pyrrolidin-3-yl}-2-methoxyacetamide]
0.41 | CCCCCC(=O)N[C@H]1CCN(c2cc(CCC)nc(Nc3cccc(C#N)c3)n2)C1 [Example 150, (S)-N-{1-[2-(3-cyanophenylamino)-6-propylpyrimidin-4-yl]pyrrolidin-3-yl}hexanamide]
0.121 | CCCc1cc(N2CC[C@H](NC(=O)CN(C)C)C2)nc(Nc2cccc(C#N)c2)n1 [Example 160]
0.0025 | CCCCc1cc(N2CC[C@H](NCC)C2)nc(Nc2ccc(F)c(N)c2)n1 [Example 470]
0.036 | CCCc1cc(N2CCC(N)C2)nc(Nc2ccc(F)c(C#N)c2)n1 (stereo not shown) [Example 182]
0.094 | CCCc1cc(N2CC[C@H](NCc3ccc(F)cc3)C2)nc(Nc2cccc(C#N)c2)n1 [Example 98, (S)-3-{4-[3-(4-fluorobenzylamino)pyrrolidin-1-yl]-6-propylpyrimidin-2-ylamino}benzonitrile]

EC50 [nM] | SMILES
0.012 | CCCc1cc(N2CC[C@H](NC(C)=O)C2)nc(Nc2ccc(Cl)c([N+](=O)[O-])c2)n1 [Example 241, (S)—N-{1-[2-(4-chloro-3-nitrophenylamino)-6-propylpyrimidin-4-yl]pyrrolidin-3-yl}acetamide]
0.47 | CCCc1cc(N2CCC[C@H]2CO)nc(Nc2cc(Cl)ccc2C)n1 [Example 204]
0.42 | CCCc1cc(N2CCC(NC(C)=O)C2)nc(Nc2cccc(Cl)c2)n1 (stereo not shown) [Example 302]
0.014 | CCCc1cc(N2CC[C@H](N)C2)nc(Nc2ccc3cc[nH]c3c2)n1 [Example 346]
0.005 | CCCc1cc(N2CC[C@H](NCC(C)(C)C)C2)nc(Nc2cccc(C#N)c2)n1 [Example 105, (S)-3-{4-[3-(neopentylamino)pyrrolidin-1-yl]-6-propylpyrimidin-2-ylamino}benzonitrile]
0.0057 | CCCc1cc(N2CC[C@H](NCC3CC3)C2)nc(Nc2ccc(C)c(N)c2)n1 [Example 383]
0.0064 | CCCc1cc(N2CC[C@H](NC(=O)CO)C2)nc(Nc2ccc(Cl)c(N)c2)n1 [Example 479]
0.028 | CCCc1cc(N2CCC(NC(C)=O)C2)nc(Nc2ccc(Cl)c([N+](=O)[O-])c2)n1 (stereo not shown) [Example 297, N-{1-[2-(4-chloro-3-nitrophenylamino)-6-propylpyrimidin-4-yl]pyrrolidin-3-yl}acetamide]
0.07 | CCCc1cc(N2CCC(NC(C)=O)C2)nc(Nc2ccc(C)c(Cl)c2)n1 (stereo not shown) [Example 304]
0.0035 | CCCCN[C@H]1CCN(c2cc(CCC)nc(Nc3cccc(C#N)c3)n2)C1 [Example 116, (S)-3-{4-[3-(butylamino)pyrrolidin-1-yl]-6-propylpyrimidin-2-ylamino}benzonitrile]
0.254 | CCCc1cc(N2CCC[C@H]2CNCCO)nc(Nc2cccc(C#N)c2)n1 [Example 407]
0.024 | CCCc1cc(N2CC[C@H](NC(C)=O)C2)nc(Nc2ccc(C)c(N)c2)n1 [Example 493, (S)-N-{1-[2-(3-amino-4-methylphenylamino)-6-propylpyrimidin-4-yl]pyrrolidin-3-yl}acetamide hydrochloride]
0.018 | CCCc1cc(N2CCC[C@H]2CO)nc(Nc2ccc(N)c(C#N)c2)n1 [Example 215]
0.01 | CCCc1cc(N2CC[C@H](NC(C)=O)C2)nc(Nc2ccc(F)c(C#N)c2)n1 [Example 251]
0.013 | CCCc1cc(N2CC[C@H](NC(C)=O)C2)nc(Nc2ccc(Cl)c(N)c2)n1 [Example 290]
0.091 | CCCc1cc(N2CC[C@H](NC(C)C(C)(C)O)C2)nc(Nc2cccc(C#N)c2)n1 (stereo partly drawn) [Example 131, (S)-3-{4-[3-(3-hydroxy-3-methylbutan-2-ylamino)pyrrolidin-1-yl]-6-propylpyrimidin-2-ylamino}benzonitrile]
0.012 | CCCCc1cc(N2CC[C@H](NC(C)=O)C2)nc(Nc2ccc(F)c(N)c2)n1 [Example 444]
0.0037 | CCCc1cc(N2CC[C@H](NCC3CC3)C2)nc(Nc2ccc(F)c(C#N)c2)n1 [Example 376, (S)-5-{4-[3-(cyclopropylmethylamino)pyrrolidin-1-yl]-6-propylpyrimidin-2-ylamino}-2-fluorobenzonitrile]
0.0078 | CCCCc1cc(N2CC[C@H](NC)C2)nc(Nc2ccc(Cl)c([N+](=O)[O-])c2)n1 [Example 450]
0.003 | CCCN[C@H]1CCN(c2cc(CCC)nc(Nc3cccc(C#N)c3)n2)C1 [Example 85, (S)-3-{4-propyl-6-[3-(propylamino)pyrrolidin-1-yl]pyrimidin-2-ylamino}benzonitrile]
0.041 | CCCc1cc(N2CCC[C@H]2C)nc(Nc2ccc(F)c([N+](=O)[O-])c2)n1 [Example 320, (R)—N-(4-fluoro-3-nitrophenyl)-4-(2-methylpyrrolidin-1-yl)-6-propylpyrimidin-2-amine]
0.2 | CCCc1cc(N2CC[C@H](NC(=O)CNC(=O)OCc3ccccc3)C2)nc(Nc2cccc(C#N)c2)n1 [Example 165, (S)-benzyl 2-{1-[2-(3-cyanophenylamino)-6-propylpyrimidin-4-yl]pyrrolidin-3-ylamino}-2-oxoethylcarbamate]
0.0043 | CCCc1cc(N2CC[C@H](NCC3CC3)C2)nc(Nc2ccc(C)c(Cl)c2)n1 [Example 381]
0.084 | CCCc1cc(N2CC[C@H](NC(=O)CC)C2)nc(Nc2cccc(C#N)c2)n1 [Example 146, (S)-N-{1-[2-(3-cyanophenylamino)-6-propylpyrimidin-4-yl]pyrrolidin-3-yl}propionamide]
0.0098 | CCCCc1cc(N2CC[C@H](NC(C)=O)C2)nc(Nc2ccc(Cl)c(N)c2)n1 [Example 445]

SMILES | EC50 [nM]
CCCc1cc(N2CC[C@H](NCc3ccc(OC(C)=O)cc3)C2)nc(Nc2cccc(C#N)c2)n1 [Example 109, (S)-4-({1-[2-(3-cyanophenylamino)-6-propylpyrimidin-4-yl]pyrrolidin-3-ylamino}methyl)phenylacetate] | 0.012
